# Experiments:
# [1] = stated as known; cited from earlier work
# [2] = Proteolytic action on target protein by hydroxyl radical (FIG. 2A); format: biochemical; settings: prevention of degradation of target protein
# Text: FIG. 2A is a hydroxyl radical, in which 1 is untreated target protein, 2 is no antioxidant added, 3 is IMDP added, 4 is vitamin C added, 5 is ferulic acid added, 6 is IMDP+vitamin C+ferulic acid added; and […]
# [3] = Proteolytic action on target protein by peroxynitrite radical (FIG. 2B); format: biochemical; settings: prevention of degradation of target protein
# [4] = stated as known; cited from earlier work; remark: listed apart in the source
compound,measurement,setting,value
CC1=C(/C=C/C(C)=C/C=C/C(C)=C/C=C/C=C(C)/C=C/C=C(C)/C=C/C2=C(C)C(=O)[C@@H](O)CC2(C)C)C(C)(C)C[C@H](O)C1=O [astaxanthin],antioxidant activity against hydroxyl radicals (known),[1],strong
COc1cc(/C=C/C(=O)O)ccc1O [ferulic acid],antioxidant activity against hydroxyl radicals,[2],strong
O=C1O[C@H]([C@@H](O)CO)C(O)=C1O [vitamin C],antioxidant activity against peroxynitrite radicals,[3],strong
same,antioxidant activity against peroxynitrite radicals (known),[4],strong
vitamin E,antioxidant activity against hydroxyl radicals (known),[1],strong
